Activity calls are given as the source filed them. The rule behind the calls is not given here.

Data set [1] addresses Transient receptor potential cation channel subfamily V member 1 (Homo sapiens) (UniProt Q8NER1). The data set is described as follows: Agonist activity at TRPV1 (unknown origin) expressed in HEK-293 cells assessed as induction of calcium influx at 50 uM incubated for 48 hrs by Fura2-AM dye based calcium imaging assay. It is filed as cell-based.
Data set [2] in a line: Drug degradation in PBS assessed as hydrolysis of western conjugate region at 0.2 mM at 37 degC incubated up to 6 hrs by LC-MS analysis. As to conditions: buffer, 200 µM; for Drug degradation: TDE = time-dependent effect. Format: physicochemical.
In data set [3] the target is Transient receptor potential cation channel subfamily V member 1 (Homo sapiens) (UniProt Q8NER1). Nature of the data set: Agonist activity at TRPV1 (unknown origin) expressed in HEK-293 cells assessed as induction of calcium influx at 50 uM incubated for 48 hrs by Fura2-AM dye based calcium imaging assay relative to capsaicin. Format: cell-based.
A further data set concerns PC-3. The data set is described as follows: Cytotoxicity in […] expressing human PC3 cells assessed as reduction in cell viability at 200 uM incubated for 24 to 72 hrs by Cell-titer blue assay. As to conditions: TDE = time-dependent effect. It is filed as functional, cell-based.
Data set [4] concerns the target Transient receptor potential cation channel subfamily V member 1 (Homo sapiens) (UniProt Q8NER1). The data set is described as follows: Agonist activity at TRPV1 (unknown origin) expressed in HEK-293 cells assessed as induction of calcium influx at 5 uM incubated for 48 hrs by Fura2-AM dye based calcium imaging assay. It is filed as cell-based.
For data set [5] the target is unchanged. Nature of the data set: Binding affinity to TRPV1 in human U251 cells assessed as compound internalization by measuring compound localization in intracellular compartment at 20 uM incubated for 24 hrs by azide-488 fluorophore based in situ click reaction assay and confocal microscopy. It is filed as cell-based.

Sequence of Transient receptor potential cation channel subfamily V member 1 (Homo sapiens) (Q8NER1 whole entry): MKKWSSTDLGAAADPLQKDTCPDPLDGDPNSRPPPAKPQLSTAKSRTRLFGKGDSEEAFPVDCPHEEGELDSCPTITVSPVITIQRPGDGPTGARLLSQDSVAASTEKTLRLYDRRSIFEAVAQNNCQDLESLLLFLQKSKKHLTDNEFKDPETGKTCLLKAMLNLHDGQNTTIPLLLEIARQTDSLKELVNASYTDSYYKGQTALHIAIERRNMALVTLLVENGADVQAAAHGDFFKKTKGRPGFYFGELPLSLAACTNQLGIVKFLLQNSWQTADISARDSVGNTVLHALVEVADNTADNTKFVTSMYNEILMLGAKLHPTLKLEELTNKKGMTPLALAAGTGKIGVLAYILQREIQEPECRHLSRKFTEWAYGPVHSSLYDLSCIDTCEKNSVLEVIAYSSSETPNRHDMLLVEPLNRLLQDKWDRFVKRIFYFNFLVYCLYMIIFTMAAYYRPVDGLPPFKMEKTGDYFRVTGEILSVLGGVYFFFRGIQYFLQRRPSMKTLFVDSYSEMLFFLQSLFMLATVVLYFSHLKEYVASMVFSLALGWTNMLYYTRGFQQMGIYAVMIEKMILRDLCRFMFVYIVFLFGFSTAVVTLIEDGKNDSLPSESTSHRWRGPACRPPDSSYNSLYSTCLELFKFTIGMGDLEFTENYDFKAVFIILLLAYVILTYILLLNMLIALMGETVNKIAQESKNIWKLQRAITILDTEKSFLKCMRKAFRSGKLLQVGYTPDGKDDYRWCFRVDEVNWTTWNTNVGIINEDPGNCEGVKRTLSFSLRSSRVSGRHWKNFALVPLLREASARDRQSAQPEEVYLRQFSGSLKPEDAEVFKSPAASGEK

As for `COc1cc(CNC(=O)CCCCNC(=O)c2ncn3c(=O)n(C)nnc23)ccc1O`, the outcome in data set [1] was Active. Moreover, the Drug degradation result in data set [2] is on record as “Tde”. Besides, the Activity in data set [3] is 40%; with PC-3, “Tde”.

Take `C#CCCCCCCCCC(=O)NCc1ccc(O)c(OC)c1`: the result in data set [4] and in data set [5] was Active.

`COc1cc(CNC(=O)CNC(=O)c2ncn3c(=O)n(C)nnc23)ccc1O`: the result in data set [1] was Active. For the same molecule, the Drug degradation entry in data set [2] is given as “Tde”. Moreover, the Activity is 40% in data set [3] and “Tde” in the data set on PC-3.

For the molecule `COc1cc(CNC(=O)CCCC/C=C/C(C)C)ccc1O` [CAPSAICIN], the Stability entry in data set [2] is listed as “Stable”.

As for `Cn1nnc2c(C(N)=O)ncn2c1=O`, in the data set on PC-3, the Activity entry was “Tde”.

`COc1cc(CNC(=O)CCCCCCNC(=O)c2ncn3c(=O)n(C)nnc23)ccc1O`: the outcome in data set [1] was Active. Moreover, the Drug degradation result in data set [2] is given as “Tde”. Also, the values for the Activity (in data set [3]; in the data set on PC-3) were 40% and “Tde”, respectively.

These data come from ChEMBL document CHEMBL4402508, “Natural product-drug conjugates for modulation of TRPV1-expressing tumors” (Bioorg Med Chem, 2019).
